# US8067456B2 (AEterna Zentaris GmbH, priority 2004, dated 2011)
# Columns and labels:
# [1] = Metabolic stability in human liver microsomes; format: in vitro ADME; details: 1 μM, 37° C., NADPH
# Experimental: The metabolic stability in relation to liver microsomes (species human, rat) was determined in accordance with the following description: the substances were incubated at a test concentration of 1 […] An HPLC MS/MS method was subsequently used to quantify the unmetabolized amount of starting compound relative to 100%.
# rat LHRH receptor = target: T1, rat LHRH receptor (Rattus norvegicus, UniProt P30969); experiment: LHRH receptor-ligand binding assay (transfected LTK cells); details: LTK cells transfected with rat LHRH receptor, 125I-triptorelin tracer, 37° C., 60 min; read-out: Binding to r-LHRHR EC50
# T1 construct: expressed in transfected cells; host or cells: LTK cells (mouse fibroblasts, ATCC CCL-1.3)
# T1 sequence (P30969 1-327): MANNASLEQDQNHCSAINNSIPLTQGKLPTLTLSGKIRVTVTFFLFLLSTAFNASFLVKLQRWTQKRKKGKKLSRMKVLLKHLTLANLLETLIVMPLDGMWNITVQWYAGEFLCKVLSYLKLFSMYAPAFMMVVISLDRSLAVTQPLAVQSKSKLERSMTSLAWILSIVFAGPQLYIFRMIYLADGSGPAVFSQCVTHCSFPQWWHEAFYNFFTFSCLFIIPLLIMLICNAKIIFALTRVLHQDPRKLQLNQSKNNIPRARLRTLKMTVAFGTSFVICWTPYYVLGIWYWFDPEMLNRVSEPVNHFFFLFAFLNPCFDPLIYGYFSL
# Experimental: ^125I-Triptorelin [^125I-(D)-Trp6-GnRH] was purchased from Biotrend (Cologne, Germany).
# The specific activity was in each case 2.13 Ci/mmol.
# LTK cells (mouse fibroblasts: ATCC No. CCL-1.3) which have been transfected with the rat LHRH receptor are cultivated in DMEM medium (Invitrogen Life Technologies, Germany) with penicillin (100 I.U./ml), streptomycin (0.1 mg/ml) and glutamine (0.01 mol/l) and 10% fetal calf serum (FCS; Invitrogen Life Technologies, Germany) on plastic tissue culture plates (Nunc, Germany, 245×245-20 mm).
# 80% confluent cell culture plates are washed twice with 50 ml of phosphate-buffered saline (PBS) and then detached with 0.01 M EDTA solution. The cells are pelleted by centrifugation at 200·g for 5 min in a laboratory centrifuge (Kendro, Germany). The cell pellet is resuspended in 3 ml of binding medium (DMEM; 10 mM Hepes; 0.5% BSA; 0.1% […]; 1 g/l bacitracin (add fresh, stock 100×); 0.1 g/l SBTI (add fresh, stock 1000×) and the cell count is determined by Trypan blue staining in a Neubauer counting chamber. The cell suspension is adjusted with binding medium to a concentration of 5×10^5 cells/0.05 ml.
# Binding studies for competition plots are carried out as duplicates. The test substances are employed as 10 mM DMSO solutions. They are diluted to 4 times the final concentration employed with binding medium. 25 μl of the substance dilution are mixed with 25 μl of tracer solution (^125I-triptorelin or ^125I-cetrorelix). The tracer concentration is adjusted to approx. 50 000 cpm (measured in a Cobra II, γ counter. PE Liefe Science, Germany) in the final reaction volume of 100 μl.
# 200 μl of silicone/liquid paraffin mixture (84%:16%) are introduced into 650 μl conical tubes (Roth. Germany). 50 μl of the cell suspension are pipetted thereon, followed by 50 μl of the test substance/tracer mixture. The tubes are capped and incubated with vertical rotation in an incubator at 37° C. for 60 min. After incubation, the samples are centrifuged in a centrifuge (Kendro, Germany) at 900 rpm and subsequently shock-frozen in liquid N2. The tip with the cell pellet is cut off and transferred into prepared counting vials (Roth, Germany). The remainder of the conical tube with the remaining supernatant is likewise transferred into a counting vial. The measurement takes place in a γ counter for 1 min/sample.
# Evaluation of the samples takes place after calculation of the specific binding compared with untreated cells, after subtraction of the nonspecific binding (excess of unlabeled ligand, 1 μM) by means of GraphPad Prism or alternatively by means of OMMM software.
structure (smiles),measurement,setting,value
"CCC(C)[C@H](NC(=O)OCc1ccccc1)C(=O)N[C@]1(C(=O)N[C@H](C(N)=S)C(C)CC)CCc2[nH]c3c(Cl)cc(Cl)cc3c2C1 (stereo partly drawn) [Compound 7, benzyl {(S)-1-[(R)-6,8-dichloro-3-((S)-2-methyl-1-thiocarbamoylbutylcarbamoyl)-2,3,4,9-tetrahydro-1H-carbazol-3-ylcarbamoyl]-2-methylbutyl}carbamate]",recovery at 1 μM,[1],65%
same,EC50,rat LHRH receptor,7.9 nM
